Data set [1] addresses T1, Inactive tyrosine-protein kinase transmembrane receptor ROR1 (Homo sapiens, UniProt Q01973). Description: Binding affinity to N-terminal His/GST-tagged recombinant human ROR1 (453 to 783 residues) extracted from baculovirus infected insect cells assessed as dissociation constant by SPR analysis. In general terms: In SPR one partner is held on a chip, and binding of the other changes the refractive index at the surface.

Another data set concerns SK-HEP1. Briefly: Cytotoxicity against human SK-HEP1 cells assessed as decrease in cell viability incubated for 24 hrs by CCK-8 assay. Type of data set: functional, cell-based. The settings on record: SK-HEP1, 24 h. For orientation: Formazan colour is commonly taken as a measure of viable cells.
The nature of data set [2]: Cytotoxicity against human MCF-10A cells assessed as decrease in cell viability incubated for 24 hrs by CCK-8 assay. Type of data set: toxicity, cell-based.
The next data set has as its system MDA-MB-231. Description: Cytotoxicity against ROR1-positive human MDA-MB-231 cells assessed as decrease in cell viability incubated for 24 hrs by CCK-8 assay. The settings on record: MDA-MB-231, 24 h. Type of data set: functional, cell-based.
The test system of data set [3] is MCF7. Description: Cytotoxicity against ROR1-negative human MCF7 cells assessed as decrease in cell viability incubated for 24 hrs by CCK-8 assay. Type of data set: functional, cell-based. The settings on record: MCF7, 24 h.
Data set [4] concerns MCF7. Briefly: Binding affinity to ROR1 negative human MCF7 cells at 10 uM administered as FITC-labeled compound and measured after 30 mins by Hoechst 33342 staining based confocal fluorescence microscopic analysis. In kind it is functional, cell-based.
The target in data set [5] is T1, Inactive tyrosine-protein kinase transmembrane receptor ROR1. Briefly: Binding affinity to ROR1 positive human MDA-MB-231 cells at 10 uM administered as FITC-labeled compound and measured after 30 mins by Hoechst 33342 staining based confocal fluorescence microscopic analysis. Type of data set: cell-based.
Another data set is filed under the species Homo sapiens. Briefly: Binding affinity to CD16A (unknown origin) by SPR analysis.

Calls of active or inactive are those of the source. The rule behind the calls is not given here. *1 amine or outer side, *2 acyl side, *3 side chain or, on linkers, in order; H or OH if unused. Where a SMILES comes first, the peptide text is derived from it. [ ]: non-standard residue; d: D form. The star is where a group is joined. ξ: configuration not given here. Glutaryl(5-(14-O-Dox)) = COc1cccc2c1C(=O)c1c(O)c3c(c(O)c1C2=O)C[C@@](O)(C(=O)COC(=O)CCCC(=O)*)C[C@@H]3O[C@H]1C[C@H](N)[C@H](O)[C@H](C)O1; X7 = COc1cccc2c1C(=O)c1c(O)c3c(c(O)c1C2=O)C[C@@](O)(C(=O)CO)C[C@@H]3O[C@H]1C[C@H](NC(=O)CCCCCN2C(=O)CC(*)C2=O)[C@H](O)[C@H](C)O1; X5 = O=C(O)CCCCCCCCCCCCCCCCC(=O)NC(CCC(=O)NCCOCCOCC(=O)NCCOCCOCC(=O)NC(CCCCNC(=O)CCN1C(=O)CC(*)C1=O)C(=O)O)C(=O)O; X3 = CC(C)C(NC(=O)CCCCCN1C(=O)CC(*)C1=O)C(=O)NC(CCCNC(N)=O)C(=O)Nc1ccc(OCC2OC(n3ccc(N)nc3=O)C(F)(F)C2O)cc1; X6 = Nc1ccn(C2OC(COC(=O)CCCCCN3C(=O)CC(*)C3=O)C(O)C2(F)F)c(=O)n1; X2 = NC(=O)C[C@H](N[*:1])C(=O)C[C@@H](CC(=O)O)C(=O)[*:2]; X4 = Nc1ccn(C2OC(COC(=O)CCCC(=O)*)C(O)C2(F)F)c(=O)n1; C18 diacid = O=C(O)CCCCCCCCCCCCCCCCC(=O)*; ξγGlu = O=C(O)C(CCC(=O)[*:2])N[*:1]; AEEA = NCCOCCOCC(=O)O

The term Kd denotes the free concentration of one partner at which half of the binding sites on the other are occupied at equilibrium, for simple one-to-one binding. As a reminder, the IC50 is the concentration that inhibits the measured activity by half.

T1 sequence (Q01973 whole entry, the tested form may be a part): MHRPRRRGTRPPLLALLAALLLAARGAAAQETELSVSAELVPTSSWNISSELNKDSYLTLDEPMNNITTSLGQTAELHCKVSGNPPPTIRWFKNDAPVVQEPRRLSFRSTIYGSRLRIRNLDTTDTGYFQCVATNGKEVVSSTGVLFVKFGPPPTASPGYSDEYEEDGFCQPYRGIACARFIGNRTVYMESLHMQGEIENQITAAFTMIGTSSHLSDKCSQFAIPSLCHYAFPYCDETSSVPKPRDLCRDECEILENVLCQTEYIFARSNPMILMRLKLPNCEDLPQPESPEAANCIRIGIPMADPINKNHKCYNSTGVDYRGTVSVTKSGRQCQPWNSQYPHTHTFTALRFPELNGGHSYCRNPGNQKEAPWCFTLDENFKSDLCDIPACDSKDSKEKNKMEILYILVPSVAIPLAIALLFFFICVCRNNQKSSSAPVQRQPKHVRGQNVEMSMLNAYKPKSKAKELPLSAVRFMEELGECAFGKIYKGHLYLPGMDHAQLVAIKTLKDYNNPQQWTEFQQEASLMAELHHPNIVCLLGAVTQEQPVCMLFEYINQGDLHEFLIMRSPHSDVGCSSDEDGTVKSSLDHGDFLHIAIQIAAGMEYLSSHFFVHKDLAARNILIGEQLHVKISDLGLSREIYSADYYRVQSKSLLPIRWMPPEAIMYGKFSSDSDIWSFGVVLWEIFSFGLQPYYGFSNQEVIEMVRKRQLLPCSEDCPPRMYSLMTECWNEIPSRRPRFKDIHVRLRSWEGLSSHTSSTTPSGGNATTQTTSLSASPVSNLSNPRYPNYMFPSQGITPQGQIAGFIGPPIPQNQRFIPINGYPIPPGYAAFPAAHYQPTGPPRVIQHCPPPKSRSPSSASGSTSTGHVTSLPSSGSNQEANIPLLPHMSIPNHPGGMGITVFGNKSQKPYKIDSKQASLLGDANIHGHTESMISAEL

Turning to `CC[C@H](C)[C@H](NC(=O)[C@H](CC(=O)O)NC(=O)[C@H](CO)NC(=O)CNC(=O)[C@H](CSC1CC(=O)N(CCC(=O)NCCCCC(NC(=O)COCCOCCNC(=O)COCCOCCNC(=O)CCC(NC(=O)CCCCCCCCCCCCCCCCC(=O)O)C(=O)O)C(=O)O)C1=O)NC(=O)CNC(=O)[C@H](CCCCN)NC(=O)CCCC(=O)OCC1OC(n2ccc(N)nc2=O)C(F)(F)C1O)C(=O)N[C@@H](CC(N)=O)C(=O)N[C@@H](CC(=O)O)C(=O)N[C@@H](CCCNC(=N)N)C(=O)N[C@@H](CCC(N)=O)C(=O)N[C@H](C(=O)N1CCC[C@H]1C(=O)NCC(=O)N[C@@H](Cc1ccc(O)cc1)C(=O)N[C@@H](CO)C(=O)N[C@H](C(=O)N[C@@H](Cc1ccc(O)cc1)C(=O)N[C@@H](Cc1c[nH]c2ccccc12)C(=O)NCC(=O)N[C@@H](CC(=O)O)C(=O)N[C@@H](Cc1ccccc1)C(N)=O)[C@@H](C)O)[C@@H](C)CC` (some centres not stated) (X4-KGC(X5)GSDINDRQIPGYSTYWGDF-NH2), the Kd in data set [1] was 0.0398 µM. The IC50 in the data set on SK-HEP1 turned out to be 7.54 µM; with MDA-MB-231, 0.301 µM; in the data set with MCF7 [3], 17.8 µM. In data set [2], the IC50 at 24 h worked out at 27.9 µM.

For the molecule `CC[C@H](C)[C@H](NC(=O)[C@H](CC(=O)O)NC(=O)[C@H](CO)NC(=O)CNC(=O)[C@H](CSC1CC(=O)N(CCCCCC(=O)NC(C(=O)NC(CCCNC(N)=O)C(=O)Nc2ccc(OCC3OC(n4ccc(N)nc4=O)C(F)(F)C3O)cc2)C(C)C)C1=O)NC(=O)CNC(=O)[C@H](CCCCN)NC(=O)COCCOCCNC(=O)COCCOCCNC(=O)CCC(NC(=O)CCCCCCCCCCCCCCCCC(=O)O)C(=O)O)C(=O)N[C@@H](CC(N)=O)C(=O)C[C@@H](CC(=O)O)C(=O)N[C@@H](CCCNC(=N)N)C(=O)N[C@@H](CCC(N)=O)C(=O)N[C@H](C(=O)N1CCC[C@H]1C(=O)NCC(=O)N[C@@H](Cc1ccc(O)cc1)C(=O)N[C@@H](CO)C(=O)N[C@H](C(=O)N[C@@H](Cc1ccc(O)cc1)C(=O)N[C@@H](Cc1c[nH]c2ccccc12)C(=O)NCC(=O)N[C@@H](CC(=O)O)C(=O)N[C@@H](Cc1ccccc1)C(N)=O)[C@@H](C)O)[C@@H](C)CC` (some centres not stated) ({C18 diacid-ξγGlu-AEEA-AEEA}-KGC(X3)GSDI[X2]RQIPGYSTYWGDF-NH2), in data set [1], the Kd turned out to be 0.0285 µM. Besides, the results for the IC50 in the data set on SK-HEP1, in the data set on MDA-MB-231 and in the data set with MCF7 [3] were 1.23 µM, 6.79 µM and more than 50 µM, respectively. In addition, the IC50 at 24 h in data set [2] is 14.6 µM.

In the case of `CC[C@H](C)[C@H](NC(=O)[C@H](CC(=O)O)NC(=O)[C@H](CO)NC(=O)CNC(=O)[C@H](CSC1CC(=O)N(CCCCCC(=O)OCC2OC(n3ccc(N)nc3=O)C(F)(F)C2O)C1=O)NC(=O)CNC(=O)[C@H](CCCCN)NC(=O)COCCOCCNC(=O)COCCOCCNC(=O)CCC(NC(=O)CCCCCCCCCCCCCCCCC(=O)O)C(=O)O)C(=O)N[C@@H](CC(N)=O)C(=O)N[C@@H](CC(=O)O)C(=O)N[C@@H](CCCNC(=N)N)C(=O)N[C@@H](CCC(N)=O)C(=O)N[C@H](C(=O)N1CCC[C@H]1C(=O)NCC(=O)N[C@@H](Cc1ccc(O)cc1)C(=O)N[C@@H](CO)C(=O)N[C@H](C(=O)N[C@@H](Cc1ccc(O)cc1)C(=O)N[C@@H](Cc1c[nH]c2ccccc12)C(=O)NCC(=O)N[C@@H](CC(=O)O)C(=O)N[C@@H](Cc1ccccc1)C(N)=O)[C@@H](C)O)[C@@H](C)CC` (some centres not stated) ({C18 diacid-ξγGlu-AEEA-AEEA}-KGC(X6)GSDINDRQIPGYSTYWGDF-NH2), in data set [1], the Kd was found to be 0.124 µM. For the same molecule, the IC50 with SK-HEP1 is 26 µM; in the data set on MDA-MB-231, 15.8 µM; with MCF7 [3] it was 16.6 µM. In addition, in data set [2], the IC50 at 24 h is 30.1 µM.

As to `CC[C@H](C)[C@H](NC(=O)[C@H](CC(=O)O)NC(=O)[C@H](CO)NC(=O)CNC(=O)[C@H](CSC1CC(=O)N(CCCCCC(=O)N[C@H]2C[C@H](O[C@H]3C[C@](O)(C(=O)CO)Cc4c(O)c5c(c(O)c43)C(=O)c3c(OC)cccc3C5=O)O[C@@H](C)[C@H]2O)C1=O)NC(=O)CNC(=O)[C@H](CCCCN)NC(=O)COCCOCCNC(=O)COCCOCCNC(=O)[C@H](CCC(=O)O)NC(=O)CCCCCCCCCCCCCCCCC(=O)O)C(=O)N[C@@H](CC(N)=O)C(=O)N[C@@H](CC(=O)O)C(=O)N[C@@H](CCCNC(=N)N)C(=O)N[C@@H](CCC(N)=O)C(=O)N[C@H](C(=O)N1CCC[C@H]1C(=O)NCC(=O)N[C@@H](Cc1ccc(O)cc1)C(=O)N[C@@H](CO)C(=O)N[C@H](C(=O)N[C@@H](Cc1ccc(O)cc1)C(=O)N[C@@H](Cc1c[nH]c2ccccc12)C(=O)NCC(=O)N[C@@H](CC(=O)O)C(=O)N[C@@H](Cc1ccccc1)C(N)=O)[C@@H](C)O)[C@@H](C)CC` (some centres not stated) ({C18 diacid}-E[AEEA][AEEA]KGC(X7)GSDINDRQIPGYSTYWGDF-NH2), the Kd in data set [1] turned out to be 0.152 µM. In addition, the IC50 with SK-HEP1 came to 20 µM; in the data set on MDA-MB-231, 14.6 µM; in the data set on MCF7 [3], 35.6 µM. The IC50 at 24 h in data set [2] amounted to 27.3 µM.

Consider `CC[C@H](C)[C@H](NC(=O)[C@H](CC(=O)O)NC(=O)[C@H](CO)NC(=O)CNC(=O)[C@H](CSC1CC(=O)N(CCC(=O)NCCCCC(NC(=O)COCCOCCNC(=O)COCCOCCNC(=O)CCC(NC(=O)CCCCCCCCCCCCCCCCC(=O)O)C(=O)O)C(=O)O)C1=O)NC(=O)CNC(=O)[C@H](CCCCN)NC(=O)CCCC(=O)OCC(=O)[C@]1(O)Cc2c(O)c3c(c(O)c2[C@@H](O[C@H]2C[C@H](N)[C@H](O)[C@H](C)O2)C1)C(=O)c1c(OC)cccc1C3=O)C(=O)N[C@@H](CC(N)=O)C(=O)N[C@@H](CC(=O)O)C(=O)N[C@@H](CCCNC(=N)N)C(=O)N[C@@H](CCC(N)=O)C(=O)N[C@H](C(=O)N1CCC[C@H]1C(=O)NCC(=O)N[C@@H](Cc1ccc(O)cc1)C(=O)N[C@@H](CO)C(=O)N[C@H](C(=O)N[C@@H](Cc1ccc(O)cc1)C(=O)N[C@@H](Cc1c[nH]c2ccccc12)C(=O)NCC(=O)N[C@@H](CC(=O)O)C(=O)N[C@@H](Cc1ccccc1)C(N)=O)[C@@H](C)O)[C@@H](C)CC` (some centres not stated) ({Glutaryl(5-(14-O-Dox))}-KGC(X5)GSDINDRQIPGYSTYWGDF-NH2), for which the Kd in data set [1] was determined as 0.0665 µM. For the same molecule, the figures for the IC50 in the data set with SK-HEP1, with MDA-MB-231 and with MCF7 [3] were 1.27 µM, 2.83 µM and 16.9 µM, respectively. Further, the IC50 at 24 h in data set [2] turned out to be 10.1 µM.

With `Nc1ccn([C@@H]2O[C@H](CO)[C@@H](O)C2(F)F)c(=O)n1` [GEMCITABINE], the IC50 in the data set on SK-HEP1 came to 3.67 µM; in the data set on MDA-MB-231 it was 1.78 µM; in the data set with MCF7 [3], 4.79 µM. For the same molecule, the IC50 at 24 h in data set [2] came out at 3.23 µM.

Consider H-GYSTYWGDF-NH2, for which the Kd in data set [1] stood at 0.147 µM.

In the case of H-INSGPGYSTYYGDF-NH2, in data set [1], the equilibrium dissociation constant (Kd) amounted to 0.00121 µM. Besides, the outcome in the data set on MCF7 [4] was inactive. Besides, the outcome in data set [5] was Active. In the data set filed under Homo sapiens, the Activity entry is “Not active; Abnormal Binding Affinity Curves Observed”.

Turning to H-INSGPSDINDRQIPGYSTYWGDF-NH2, the Kd in data set [1] turned out to be 0.261 µM.

For H-INSGPSDINDYPI-NH2, the Kd in data set [1] turned out to be 0.0405 µM.

Consider H-INSGPSDINDYPIPGYSTYYGDF-NH2, for which, in data set [1], the Kd is 0.713 µM.

Regarding H-SDINDRQI-NH2, the Kd in data set [1] was determined as 0.0265 µM.

On to H-SDINDYPIPGYSTYYGDF-NH2, for which, in data set [1], the Kd is 0.00298 µM. Moreover, in the data set on MCF7 [4], the outcome was inactive. In addition, in data set [5], the outcome was Active. In addition, the Activity entry in the data set listed under Homo sapiens was “Not active; Abnormal Binding Affinity Curves Observed”.

The record behind these values is ChEMBL document CHEMBL6083182, “Development of Peptide Paratope Mimics Derived from the Anti-ROR1 Antibody and Long-Acting Peptide-Drug Conjugates for Targeted Cancer Therapy” (J Med Chem, 2024).
